Results as given in paper PMC12386809, “Phenanthrene Monomers and Dimers from Juncus tenuis with Antiproliferative Activity and Synergistic Effect with Doxorubicin Against Human Colon Cancer Cell Lines” (International Journal of Molecular Sciences, 2025).
Like-named read-outs stand apart in the source and are kept apart here.

Tests used:
[1] = system: multidrug-resistant COLO 320 cells; experiment: Drug combination assay with doxorubicin (Chou-Talalay, MTT); format: cell-based, human; conditions: for CI at ED50 (combination index): combination with doxorubicin, COLO 320, 72 h, Chou-Talalay; for Interaction: interaction with doxorubicin in COLO 320, class from CI
Description: One promising approach involves the discovery of new bioactive natural products. To explore this, a chemosensitivity assay was conducted to examine the in vitro interactions between the isolated compounds and the antineoplastic agent doxorubicin, a substrate of P-glycoprotein (P-gp). A combination chemotherapy model was applied using human COLO 320 colon carcinoma cells. The combination index (CI), calculated according to the Chou–Talalay method, was used to evaluate drug–drug interactions, classifying them as synergistic (CI < 1), additive (CI = 1), or antagonistic (CI > 1) (Table 4).
The multidrug-resistant COLO 320 cell line was used to perform the drug combination assay. Doxorubicin (2 mg/mL, Teva Pharmaceuticals, Budapest, Hungary) was serially diluted horizontally, starting with 8.6 µM. The resistance modifier was subsequently diluted vertically, with the starting concentration determined based on the IC50 value. Doxorubicin was diluted horizontally in 100 µL, while the resistance modifiers were diluted vertically in 50 µL in the microtiter plate. The compounds and doxorubicin were prepared as separate dilutions. The cells were seeded at a density of 6 × 10^3 cells per well into 100 µL of medium and incubated for 24 h at 37 °C in a 5% CO2 atmosphere prior to treatment. After this period, the culture medium was removed, and 50 µL of fresh medium was added to each well, followed by the addition of 50 µL of the diluted compounds, resulting in a final volume of 200 µL per well. The plates were then incubated for 72 h at 37 °C under 5% CO2. The cell viability was assessed at the end of incubation using the MTT assay, as described previously. Drug interactions were analyzed using CompuSyn software (Version 1.00).
The dose–response curves for individual agents and their combinations were fitted to a linear model based on the median-effect equation to calculate the median effective dose (IC50) and the slope (m). The quality of the fit was evaluated using the linear correlation coefficient (r), and only data with r > 0.90 are reported. The extent of drug interaction was quantified using the combination index (CI), where CI ≈ 1 indicated an additive effect, CI < 1 signified synergy, and CI > 1 denoted antagonism.

[2] = system: COLO 205 (doxorubicin-sensitive) human colonic adenocarcinoma cells; experiment: MTT antiproliferative assay, COLO 205; format: cell-based; conditions: read-out: IC50 (µM) ± SD COLO 205
Description: (§1) The antiproliferative effects of the isolated phenanthrenes (compounds 1–19) were evaluated using human cancer cell lines, including doxorubicin-sensitive colonic adenocarcinoma COLO 205 and multidrug-resistant colonic adenocarcinoma COLO 320/MDR-LRP (which expresses P-glycoprotein [MDR1] and LRP), as well as non-cancerous human lung fibroblast CCD-19Lu cells. CCD-19Lu was chosen because it is a well-characterized, non-tumorigenic cell line commonly used to assess general cytotoxicity. Moreover, data from the literature support the use of lung fibroblast cell lines—including CCD-19Lu—as normal controls in studies involving colon cancer cells such as Colo 205 and Colo 320 [33]. The thiazolyl blue tetrazolium bromide (MTT) assay was employed to determine the concentration of each compound required to inhibit 50% of the cell viability (IC50), as summarized in Table 3.
(§2) The human colon adenocarcinoma cells—COLO 205 (CCL-222, doxorubicin-sensitive) and COLO 320/MDR-LRP (ATCC-CCL-220.1, multidrug-resistant, expressing P-gp)—were cultured in RPMI 1640 medium supplemented with 10% heat-inactivated fetal bovine serum, 2 mM of L-glutamine, 1 mM of sodium pyruvate, and 100 mM of HEPES. The non-cancerous human lung fibroblast cell line CCD-19Lu was maintained in Eagle’s Minimal Essential Medium (EMEM; containing 4.5 g/L of glucose) supplemented with a non-essential amino acid mixture, selected vitamins, and 10% heat-inactivated fetal bovine serum. All of the cell lines were detached using 0.25% trypsin and 0.02% EDTA for 5 min at 37 °C. The cell lines were obtained from LGC Promochem (Teddington, England).
(§3) Human colonic adenocarcinoma cell lines—doxorubicin-sensitive COLO 205 and multidrug-resistant COLO 320—as well as the non-cancerous human lung fibroblast cell line CCD-19Lu were used to evaluate the effects of the test compounds on cell proliferation. The assays were conducted in 96-well flat-bottomed microtiter plates. Stock solutions of the compounds were prepared in dimethyl sulfoxide (DMSO), with the final DMSO concentration kept below 1% in all samples. The compounds were diluted in 100 µL of the appropriate culture medium. Adherent cells were cultured in EMEM supplemented with 10% heat-inactivated fetal bovine serum and seeded into 96-well plates at a density of 6 × 10^3 cells per 100 µL per well. The cells were allowed to adhere for 24 h at 37 °C in a humidified incubator with 5% CO2. After incubation, the medium was removed and replaced with 100 µL of fresh medium. Serial dilutions of the compounds were prepared in separate plates and added to the cells, starting from a concentration of 100 µM with twofold serial dilutions (final concentration range: 100–0.19 µM). The cells were then incubated for 72 h at 37 °C. At the end of the incubation period, 20 µL of thiazolyl blue tetrazolium bromide (MTT) solution (5 mg/mL, Sigma) was added to each well. After 4 h of incubation at 37 °C, 100 µL of 10% sodium dodecyl sulfate (SDS) in 0.01 M HCl was added to solubilize the formazan crystals, and the plates were incubated overnight at 37 °C. Cell viability was assessed by measuring the optical density (OD) at 540/630 nm using a Multiscan EX ELISA reader (Thermo Labsystems, Cheshire, WA, USA).
(§4) The inhibitory concentration that reduced cell growth by 50% (IC50) was determined from the dose–response curves. The percent inhibition was calculated using the formula100 − ((OD_sample − OD_medium control)/(OD_cell control − OD_medium control)) × 100
(§5) Dose–response curves were generated by plotting the percent inhibition against the logarithm of the compound concentrations and fitted using Prism5 software (Version 6, GraphPad Software Inc., San Diego, CA, USA). The IC50 values were derived from four independent experiments conducted in parallel for each cell line and are reported as the mean values.

[3] = system: CCD-19Lu non-cancerous human lung fibroblast cells; experiment: MTT antiproliferative assay, CCD-19Lu; format: cell-based; conditions: 72 h, CCD-19Lu non-tumorigenic fibroblasts, read-out: IC50 (µM) ± SD CCD-19Lu
Description: as §1, §2, §3, §4, §5

[4] = system: COLO 320/MDR-LRP multidrug-resistant human colonic adenocarcinoma cells; experiment: MTT antiproliferative assay, COLO 320; format: cell-based; conditions: COLO 320 (multidrug-resistant), read-out: IC50 (µM) ± SD COLO 320
Description: as §1, §2, §3, §4, §5

[5] = system: HT22 cells (mouse hippocampal neuroblastoma cell line); parameters: method as in doi:10.1007/s11101-018-9561-5, PMID 25794817; conditions: 100 µM, 24 h; cited from earlier work
[6] = system: HeLa cells; parameters: method as in PMID 33348712; conditions: cited from earlier work

Structure (SMILES)	CI at ED50 (combination index) [1]	IC50 ([2]; Homo sapiens, 72 h) [µM]	IC50 [3] [µM]	IC50 ([4]; Homo sapiens, 72 h) [µM]	Interaction [1]	IC50 ([2]; Homo sapiens, COLO 205, 72 h) [µM]	IC50 ([4]; Homo sapiens, COLO 320, 72 h) [µM]	decrease in MTT reduction [5] [%]	IC50 ([2]; 72 h) [µM]	IC50 [6] [µM]	IC50 ([4]; 72 h) [µM]
C=Cc1c(C)c(O)cc2ccc3c(C)c(O)ccc3c12 [Compound 7, dehydrojuncusol]	0.117	28.16 ± 0.27	42.04 ± 0.39	45.3 ± 2.78	–	–	–	–	–	–	–
C=Cc1cc(O)cc2c1-c1cc(-c3cc4c(c(C)c3O)CCc3cc(O)cc(C(C)OC)c3-4)c(O)c(C)c1CC2 (stereo not drawn) [Compound 4, tenuin D]	0.669	–	9.93 ± 0.84	–	synergism (0.3 < CI < 0.7, synergism)	7.6 ± 0.13	15.7 ± 2.2	–	–	–	–
C=Cc1cc(O)cc2ccc3c(c12)C=CC(=O)C3(C)O (stereo not drawn) [Compound 1, Tenuin A]	–	–	> 100	–	–	> 100	> 100	–	–	–	–
C=Cc1cc(O)c(CO)c2c1-c1ccc(O)c(C)c1CC2 [Compound 3, 2,7-dihydroxy-8-hydroxymethyl-1-methyl-5-vinyl-9,10-dihydrophenanthrene]	–	–	96.8 ± 1.79	–	–	> 100	> 100	–	–	–	–
C=Cc1c(CO)ccc2c1CCc1c-2ccc(O)c1C [Compound 18]	0.189	–	70.8 ± 3.25	–	–	50.2 ± 0.74	31.5 ± 2.65	–	–	–	–
C=Cc1cc(O)cc2ccc3c(C)c(O)ccc3c12 [Compound 6, dehydroeffusol]	0.266	36.7 ± 2.29	58.17 ± 0.51	35.6 ± 3.89	–	–	–	–	–	–	–
C=Cc1c(C)c(O)cc2c1ccc1c(C)c(O)ccc12 [Compound 8, dehydrojuncuenin B]	2.126	–	22.8 ± 0.55	–	antagonism (1.45 < CI < 3.3, antagonism)	20.7 ± 0.47	17.9 ± 1.59	8.4	–	–	–
COc1cccc2c1C(=O)c1c(O)c3c(c(O)c1C2=O)C[C@@](O)(C(=O)CO)C[C@@H]3O[C@H]1C[C@H](N)[C@H](O)[C@H](C)O1 [doxorubicin]	–	–	1.03 ± 0.18	–	–	0.53 ± 0.05	1.72 ± 0.5	–	–	–	–
C=Cc1cc(CO)cc2c1-c1ccc(O)c(C)c1CC2 [Compound 13]	0.163	–	69.3 ± 1.77	–	–	37 ± 3.28	35.2 ± 4.68	–	–	–	–
C=Cc1cc(O)cc2c1-c1ccc(O)c(C)c1CC2 [Compound 10, effusol]	1.123	–	96 ± 2.66	–	slight antagonism	52.7	49.7	9.9	52.7 ± 1.85	2.3	49.7 ± 2.12
